In one assay the test system is BV2 microglia. As to the kind of experiment: Nitric oxide production (nitrite, Griess reaction) by LPS plus IFNγ activated BV2 microglia. It counts as cell-based, mouse. To be noted: LPS 100 ng/mL + IFNγ 50 pg/mL, 24 h. Here is the method:
BV2 cells are a murine microglial-derived cell line widely used as in vitro model for the study of compounds that could modulate microglial mediated neuronal damage. When stimulated, BV2 microglia releases neurotoxic and neuroinflammatory factors such as tumor necrosis factor alpha (TNFα), interleukin 6 (IL6) or nitric oxide (NO).
The mouse microglial cell line BV-2 was purchased at the Istituto Nazionale per la Ricerca sul Cancro (1ST, Genova, Italy). BV-2 cells were cultured in RPMI-1640 medium (Gibco Invitrogen, Paisley, Scotland, UK) supplemented with 10% FBS and 0.1% penicillin-streptomycin (both from Gibco Invitrogen). Cells were maintained at 37° C. in a 5% CO2 humidified atmosphere. BV-2 microglial cells were seeded at a density of 5×10^4 cells/mL. The following day, cells were treated with the compound of formula (I), the compound of formula (II) or the combination of both compounds, 30 minutes before stimulation with LPS 100 ng/mL and gamma-interferon (IFNγ) 50 pg/mL (both from Sigma-Aldrich, St. Louis, Mo., USA). Control wells contained the same final concentration of vehicle as the compound-containing wells. Culture supernatants were collected 24 h after LPS/IFNγ stimulation and stored at −20° C. until assayed for nitrites analysis.
Nitrite levels, direct indicators of NO production, were quantified by the Griess reaction. Briefly, 50 μL of culture medium was mixed in a 96-well plate with 25 μL of Griess reagent A (sulfanilamide, Sigma-Aldrich) and 25 μL of reagent B (N-1-naphthyl ethylene-diamine, Sigma-Aldrich). After color development (10 min at 23 to 25° C.), samples were measured at 540 nm on a microplate reader (BioTek ELX800, BioTek Instruments Inc., Vermont, USA). Nitrite concentration was determined from a sodium nitrite standard curve. Values of at least three independent wells from three experiments were calculated.
The compound of formula (I) was oleanolic acid (4.44 mg/L), the compound of formula (II) was verbascoside (3.12 mg/L), and the combination of the compound of formula (I) and the compound of formula (II) comprised oleanolic acid (4.44 mg/L) and verbascoside (3.12 mg/L). Stock solutions of the compounds (50 mM) were prepared in dimethyl sulfoxide (DMSO, Sigma-Aldrich). Solutions for cell treatment were prepared by diluting stock solutions in culture media immediately before being added to the cells (DMSO concentration: 0.5%). Controls contained the same final concentration of vehicle as the compound-containing wells. Three independent experiments were carried out.
The procedures for this assay were as described above in Example 2, wherein the compound of formula (I) was maslinic acid (13.20 mg/L), the compound of formula (II) was verbascoside (3.12 mg/L), and the and the combination of the compound of formula (I) and the compound of formula (II) comprised maslinic acid (13.20 mg/L) and verbascoside (3.12 mg/L). Stock solutions of the compounds (50 mM) were prepared in dimethyl sulfoxide (DMSO, Sigma-Aldrich). Solutions for cell treatment were prepared by diluting stock solutions in culture media immediately before being added to the cells (DMSO concentration: 0.5%). Controls contained the same final concentration of vehicle as the compound-containing wells. Three independent experiments were performed.
In general terms: The Griess reaction detects nitrite, a stable product of nitric oxide.

The next assay deals with NSC34 motor neurons. The assay can be described thus: NSC34 motor neuron viability (MTT) after hydrogen peroxide insult. It counts as cell-based, murine. To be noted: H2O2 0.2 mM 30 min, MTT after 24 h. From the text: NSC34 murine spinal cord motor neuron derived cell line was used for this assay. This neuronal cell line is a classical in vitro platform validated for the study of neuroprotective agents. They share a lot of common physiological features with spinal cord neurons such as glutamate sensibility, acetyl choline secretion upon stimulation, functional neurites or characteristic neuronal sensibility and protection mechanisms against neurotoxic agents. Motoneuronal NSC-34 cells (Cedarlane, Burlington, Ontario, Canada) were cultured at 37° C. and 5% CO2 in Dulbecco's modified Eagle's medium (DMEM) supplemented with 10% fetal bovine serum (FBS), 1% penicillin/streptomycin and 0.04 mM L-glutamine. All reagents were purchased at Gibco-Invitrogen. NSC34 cells were seeded at low density (30000 cel/mL) in appropriate tissue culture vessels, 24-well plates for toxicity assays. In the experiments, cells were pretreated for 2 h with the compound of formula (I) (oleanolic acid, 4.44 mg/L), the compound of formula (II) (hydroxytyrosol, 1.54 mg/L) or the combination of the compound of formula (I) (oleanolic acid, 4.44 mg/L) and the compound of formula (II) (hydroxytyrosol, 1.54 mg/L). Stock solutions of the compounds (50 mM) were prepared in dimethylsulfoxide (DMSO, Sigma-Aldrich). Solutions for cell treatment were prepared by diluting stock solutions in culture media immediately before being added to the cells (DMSO concentration: 0.5%). Controls contained the same final concentration of vehicle as the compound-containing wells. Hydrogen peroxide (H2O2) stock was a 30% solution in water (Aldrich). The medium was removed and replaced with a suitable volume of fresh DMEM plus FBS (Gibco). Small hydrogen peroxide aliquots were then added to a final concentration of 0.2 mM. Cells were then exposed for 30 min at 37° C. After this time the medium was removed and replaced with fresh one. The compounds were maintained in the medium for 24 hours. After this 24 hours cell viability was tested using the 3-[4,5-dimethylthiazol-2-yl]-2,5-diphenyltetrazolium bromide (MTT, Sigma) assay. After color development (15 min at 37° C.), samples were measured at 570-620 nm on a microplate reader (BioTek ELX800, BioTek Instruments Inc., Vermont, USA). Mean values of at least three independent wells from three experiments were calculated, and cell survival expressed as percent […] signal compared with untreated control conditions.

Setting [1] is: oleanolic acid 4.44 mg/L alone, listed as OLA.

In the case of `CC1(C)CC[C@]2(C(=O)O)CC[C@]3(C)C(=CC[C@@H]4[C@@]5(C)C[C@@H](O)[C@H](O)C(C)(C)[C@@H]5CC[C@]43C)[C@@H]2C1` [maslinic acid], the “BV2 NO reduction (vs. LPS + IFNγ)” value amounted to 18.67% in the assay with BV2 microglia (maslinic acid 13.20 mg/L alone) and 18.67% in the assay on BV2 microglia (maslinic acid 13.20 mg/L alone, listed as MSA).
As for `C[C@@H]1O[C@@H](O[C@@H]2[C@@H](O)[C@H](OCCc3ccc(O)c(O)c3)O[C@H](CO)[C@H]2OC(=O)/C=C/c2ccc(O)c(O)c2)[C@H](O)[C@H](O)[C@H]1O` [verbascoside], the “BV2 NO reduction (vs. LPS + IFNγ)” value with BV2 microglia (verbascoside 3.12 mg/L alone) turned out to be 14.67%; in the assay on BV2 microglia (verbascoside 3.12 mg/L alone, listed as VRB), 14.67%.
As for `CC1(C)CC[C@]2(C(=O)O)CC[C@]3(C)C(=CC[C@@H]4[C@@]5(C)CC[C@H](O)C(C)(C)[C@@H]5CC[C@]43C)[C@@H]2C1` [oleanolic acid], the “BV2 NO reduction (vs. LPS + IFNγ)” value with BV2 microglia (oleanolic acid 4.44 mg/L alone) and with BV2 microglia (setting [1]) was 17.33% each time. Besides, the “NSC34 survival increase (vs. H2O2)” value in the assay on NSC34 motor neurons (oleanolic acid 4.44 mg/L alone) and in the assay with NSC34 motor neurons (setting [1]) was 5.33% throughout.
In the case of `OCCc1ccc(O)c(O)c1` [hydroxytyrosol, 2-(3,4-dihydroxyphenyl)ethanol], the “NSC34 survival increase (vs. H2O2)” value with NSC34 motor neurons (hydroxytyrosol 1.54 mg/L alone) was 21.67%; with NSC34 motor neurons (hydroxytyrosol 1.54 mg/L alone, listed as HST) it was 21.67%.

Values taken from patent US10376529B2, “Combination of pentacyclic triterpenes and hydroxytyrosol and derivatives thereof” (NATAC BIOTECH, S.L, priority 2013, dated 2019).
